From patent US20210120813A1, “INHIBITORS OF THE SHIKIMATE PATHWAY” (PEPTICOM LTD., priority 2018, published 2021)
Where “and” joins values, the source holds several entries; their conditions need not be identical. Equal values may be shown once. Entries after “also recorded” stand apart in the source; their conditions may differ. Read-outs that look alike come from different tables or passages of the source.

Key:
[1] = system: EPSPS (TIPS mutant) from common wheat; assay type: cell-based, Triticum Aestivum
[2] = system: EPSPS (wild type) from common wheat; assay type: cell-based, Triticum Aestivum; conditions: for ability of rescued AB2829 bacteria cells (wild type EPSPS) to grow on M9 minimal media: 40 h, 0.1% rhamnose
[3] = system: EPSPS (TIPS mutant) from common wheat; assay type: cell-based, Triticum Aestivum; remark: listed apart in the source
[4] = target: WT EPSPS (Triticum aestivum, UniProt B5M6A1); experiment: In-vitro kinetics of EPSPS enzymatic activity (Malachite green phosphate release), WT; assay type: biochemical; conditions: apparent Km increases, Vmax unaffected; glyphosate vs PEP, compound 4 vs S3P
[5] = target: TIPS EPSPS (Triticum aestivum, UniProt B5M6A1, P172S/T168I); assay type: biochemical; conditions: for effect of the TIPS mutation on inhibition of EPSPS activity (IC50 WT vs TIPS): WT vs TIPS EPSPS enzyme
[6] = system: Chenopodium album (CHEAL); experiment: Weed efficacy on petri dishes, germination and visual notation, CHEAL; assay type: in vivo; conditions: for CHEAL Visual notation Mean: scale 0 = as control to 100
[7] = system: Lolium multiflorum (LOLMU); experiment: Weed efficacy on petri dishes, germination and visual notation, LOLMU; assay type: in vivo; conditions: for LOLMU Visual notation Mean: scale 0 = as control to 100

Sequence of TIPS EPSPS (B5M6A1 66-510 P172S/T168I limits assumed): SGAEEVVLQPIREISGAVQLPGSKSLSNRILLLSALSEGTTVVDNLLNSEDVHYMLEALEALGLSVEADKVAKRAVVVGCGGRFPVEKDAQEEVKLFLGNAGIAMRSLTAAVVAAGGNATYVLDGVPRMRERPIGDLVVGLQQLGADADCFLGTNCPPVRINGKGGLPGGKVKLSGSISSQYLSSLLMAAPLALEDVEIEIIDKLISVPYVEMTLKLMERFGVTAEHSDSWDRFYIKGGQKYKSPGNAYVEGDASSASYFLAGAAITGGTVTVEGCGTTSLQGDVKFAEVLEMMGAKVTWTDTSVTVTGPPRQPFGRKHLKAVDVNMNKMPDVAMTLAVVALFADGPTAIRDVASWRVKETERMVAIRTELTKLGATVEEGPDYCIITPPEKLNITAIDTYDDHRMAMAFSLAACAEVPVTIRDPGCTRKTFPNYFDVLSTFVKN
Sequence of WT EPSPS (B5M6A1 66-510 limits assumed): as the sequence (B5M6A1 66-510 P172S/T168I limits assumed) above, with I103T, S107P counted along it

## COc1c(C(=O)O)ccc([N+](=O)[O-])c1O [Compound 1, 3-Hydroxy-2-methoxy-4-nitrobenzoic acid]
[1]
  % bacterial growth relative to rescue with mutant EPSPS at 20 mM, 40 h post application: −79%
[1]; 20 mM, 40 h, 0.1% rhamnose
  ability of rescued AB2829 bacteria cells (EPSPS TIPS) to grow on M9 minimal media: completely abolish
[2]
  % bacterial growth relative to rescue with wild type EPSPS at 5 mM, 40 h post application: −15%
[2]; 5 mM
  ability of rescued AB2829 bacteria cells (wild type EPSPS) to grow on M9 minimal media: completely abolish

## COc1ccc(C(=O)O)cc1O [Compound 2, 3-Hydroxy-4-methoxybenzoic acid]
[1]
  % bacterial growth relative to rescue with mutant EPSPS at 20 mM, 40 h post application: −25%
[1]; 20 mM, 40 h, 0.1% rhamnose
  ability of rescued AB2829 bacteria cells (EPSPS TIPS) to grow on M9 minimal media: completely abolish
[2]
  % bacterial growth relative to rescue with wild type EPSPS at 5 mM, 40 h post application: 27%
[2]; 5 mM
  ability of rescued AB2829 bacteria cells (wild type EPSPS) to grow on M9 minimal media: completely abolish

## O=C(O)c1cccc(O)c1O [Compound 3, 2,3-Dihydroxybenzoic acid]
[1]
  % bacterial growth relative to rescue with mutant EPSPS at 20 mM, 40 h post application: −105%
[1]; 20 mM, 40 h, 0.1% rhamnose
  ability of rescued AB2829 bacteria cells (EPSPS TIPS) to grow on M9 minimal media: completely abolish
[2]
  % bacterial growth relative to rescue with wild type EPSPS at 5 mM, 40 h post application: 54%
[2]; 5 mM
  ability of rescued AB2829 bacteria cells (wild type EPSPS) to grow on M9 minimal media: completely abolish
[3]; 2.5 mM, rhamnose 0%-0.4%, 60 h
  growth with gradually increasing rhamnose (EPSPS TIPS titration): facilitates growth in a gradual manner

## Nc1cc(O)c([N+](=O)[O-])cc1C(=O)O [Compound 4, 2-Amino-4-hydroxy-5-nitrobenzoic acid]
[1]
  % bacterial growth relative to rescue with mutant EPSPS at 20 mM, 40 h post application: −94%
[1]; 20 mM, 40 h, 0.1% rhamnose
  ability of rescued AB2829 bacteria cells (EPSPS TIPS) to grow on M9 minimal media: completely abolish
[2]
  % bacterial growth relative to rescue with wild type EPSPS at 5 mM, 40 h post application: −87%
[2]; 5 mM
  ability of rescued AB2829 bacteria cells (wild type EPSPS) to grow on M9 minimal media: completely abolish
[3]; 1.0 mM, rhamnose 0%-0.4%, 60 h
  growth with gradually increasing rhamnose (EPSPS TIPS titration): facilitates growth in a gradual manner
[4]
  mode of EPSPS inhibition (Michaelis-Menten and Lineweaver-Burk plots): competitive inhibitor
[5]; IC50 comparison, TIPS EPSPS enzyme
  inhibition of the TIPS mutant relative to glyphosate: one order of magnitude better
[5]
  effect of the TIPS mutation on inhibition of EPSPS activity (IC50 WT vs TIPS): hardly affected

## O=C(O)c1cccc(C(=O)O)c1O [Compound 5, 2-Hydroxy-1,3-benzenedicarboxylic acid]
[1]
  % bacterial growth relative to rescue with mutant EPSPS at 20 mM, 40 h post application: −220%
[1]; 20 mM, 40 h, 0.1% rhamnose
  ability of rescued AB2829 bacteria cells (EPSPS TIPS) to grow on M9 minimal media: completely abolish

## O=C(O)c1cc([N+](=O)[O-])cc([N+](=O)[O-])c1O [Compound 6, 2-Hydroxy-3,5-dinitrobenzoic acid]
[1]
  % bacterial growth relative to rescue with mutant EPSPS at 20 mM, 40 h post application: −285%
  ability of rescued AB2829 bacteria cells (EPSPS TIPS) to grow on M9 minimal media: completely abolish

## Nc1ccc([N+](=O)[O-])cc1C(=O)O [Compound 7, 2-Amino-5-nitrobenzoic acid]
[1]
  % bacterial growth relative to rescue with mutant EPSPS at 20 mM, 40 h post application: −260%
[1]; 20 mM, 40 h, 0.1% rhamnose
  ability of rescued AB2829 bacteria cells (EPSPS TIPS) to grow on M9 minimal media: completely abolish

## CNc1ccc([N+](=O)[O-])cc1C(=O)O [Compound 8, -(Methylamino)-5-nitrobenzoic acid]
[1]
  % bacterial growth relative to rescue with mutant EPSPS at 20 mM, 40 h post application: −272%
[1]; 20 mM, 40 h, 0.1% rhamnose
  ability of rescued AB2829 bacteria cells (EPSPS TIPS) to grow on M9 minimal media: completely abolish
[6]; 50 mg a.i./L, 10 DAT
  CHEAL Germination (%) Mean: 90.0%
  CHEAL Visual notation Mean: 21.8
[6]; 500 mg a.i./L, 10 DAT
  CHEAL Germination (%) Mean: 55.0%
  CHEAL Visual notation Mean: 83.8
[6]; 5000 mg a.i./L, 10 DAT
  CHEAL Germination (%) Mean: 34.5%
  CHEAL Visual notation Mean: 95.0
[7]; 50 mg a.i./L, 10 DAT
  LOLMU Germination (%) Mean: 93.2%
  LOLMU Visual notation Mean: 3.5
[7]; 500 mg a.i./L, 10 DAT
  LOLMU Germination (%) Mean: 91.1%
  LOLMU Visual notation Mean: 6.6
[7]; 5000 mg a.i./L, 10 DAT
  LOLMU Germination (%) Mean: 30.4%
  LOLMU Visual notation Mean: 64.8

## O=C(O)c1ccc(O)c([N+](=O)[O-])c1 [Compound 10, 4-Hydroxy-3-nitrobenzoic acid]
[1]
  % bacterial growth relative to rescue with mutant EPSPS at 20 mM, 40 h post application: −21%
[1]; 20 mM, 40 h, 0.1% rhamnose
  ability of rescued AB2829 bacteria cells (EPSPS TIPS) to grow on M9 minimal media: completely abolish
[2]
  % bacterial growth relative to rescue with wild type EPSPS at 5 mM, 40 h post application: −61%
[2]; 5 mM
  ability of rescued AB2829 bacteria cells (wild type EPSPS) to grow on M9 minimal media: completely abolish
[3]; 0.4 mM, rhamnose 0%-0.4%, 60 h
  growth with gradually increasing rhamnose (EPSPS TIPS titration): facilitates growth in a gradual manner
[6]; 50 mg a.i./L, 10 DAT
  CHEAL Germination (%) Mean: 68.8%
  CHEAL Visual notation Mean: 52.4
[6]; 500 mg a.i./L, 10 DAT
  CHEAL Germination (%) Mean: 81.7%
  CHEAL Visual notation Mean: 54.4
[6]; 5000 mg a.i./L, 10 DAT
  CHEAL Germination (%) Mean: 56.7%
  CHEAL Visual notation Mean: 76.5
[7]; 50 mg a.i./L, 10 DAT
  LOLMU Germination (%) Mean: 95.6%
  LOLMU Visual notation Mean: 18.4
[7]; 500 mg a.i./L, 10 DAT
  LOLMU Germination (%) Mean: 95.6%
  LOLMU Visual notation Mean: 31.8
[7]; 5000 mg a.i./L, 10 DAT
  LOLMU Germination (%) Mean: 95.6%
  LOLMU Visual notation Mean: 54.0

## O=C(O)c1cc([N+](=O)[O-])cc([N+](=O)[O-])c1 [Compound 11, 3,5-Dinitrobenzoic acid]
[1]
  % bacterial growth relative to rescue with mutant EPSPS at 20 mM, 40 h post application: −27%
  ability of rescued AB2829 bacteria cells (EPSPS TIPS) to grow on M9 minimal media: completely abolish
[2]; 5 mM
  ability of rescued AB2829 bacteria cells (wild type EPSPS) to grow on M9 minimal media: completely abolish
[2]; 5 mM, 40 h post application, OD600, EPSPS null = 0%, Rescue = 100%
  % bacterial growth relative to rescue with wild type EPSPS at 5 mM, 40 h post application: −38%
[3]
  growth with gradually increasing rhamnose (EPSPS TIPS titration): facilitates growth in a gradual manner
[6]; in vivo
  CHEAL Germination (%) Mean: 73.3% and 66.1% and 37.6%
[7]; in vivo
  LOLMU Germination (%) Mean: 82.2% and 95.6%

## COC(=O)c1cc([N+](=O)[O-])cc([N+](=O)[O-])c1 [Compound 12, 3,5-Dinitrobenzoic acid methyl ester]
[1]
  % bacterial growth relative to rescue with mutant EPSPS at 20 mM, 40 h post application: −29%
  ability of rescued AB2829 bacteria cells (EPSPS TIPS) to grow on M9 minimal media: completely abolish
[2]; 5 mM
  ability of rescued AB2829 bacteria cells (wild type EPSPS) to grow on M9 minimal media: completely abolish

## O=C1NC(=O)c2c1ccc(O)c2O [Compound 13, 4,5-Dihydroxyisoindoline-1,3-dione]
[1]
  % bacterial growth relative to rescue with mutant EPSPS at 20 mM, 40 h post application: −31%
[1]; 20 mM, 40 h, 0.1% rhamnose
  ability of rescued AB2829 bacteria cells (EPSPS TIPS) to grow on M9 minimal media: completely abolish
[2]
  % bacterial growth relative to rescue with wild type EPSPS at 5 mM, 40 h post application: −20%
[2]; 5 mM
  ability of rescued AB2829 bacteria cells (wild type EPSPS) to grow on M9 minimal media: completely abolish
[3]; 0.25 mM, rhamnose 0%-0.4%, 60 h
  growth with gradually increasing rhamnose (EPSPS TIPS titration): could not facilitates growth in a gradual manner
[3]; single inhibitory dose, rhamnose 0.0%-0.4%
  rescue of growth phenotype by titration of EPSPS TIPS intracellular levels: couldn't rescue the growth phenotype

## O=C(O)c1cc([N+](=O)[O-])c(F)c(C(F)(F)F)c1 [Compound 14, 4-Fluoro-3-nitro-5-(trifluoromethyl)benzoic acid]
[1]
  % bacterial growth relative to rescue with mutant EPSPS at 20 mM, 40 h post application: −142%
[1]; 20 mM, 40 h, 0.1% rhamnose
  ability of rescued AB2829 bacteria cells (EPSPS TIPS) to grow on M9 minimal media: completely abolish

## O=C(O)c1cc([N+](=O)[O-])cc(C(F)(F)F)c1 [Compound 15, 3-Nitro-5-(trifluoromethyl) benzoic acid]
[1]
  % bacterial growth relative to rescue with mutant EPSPS at 20 mM, 40 h post application: −118%
[1]; 20 mM, 40 h, 0.1% rhamnose
  ability of rescued AB2829 bacteria cells (EPSPS TIPS) to grow on M9 minimal media: completely abolish
[2]
  % bacterial growth relative to rescue with wild type EPSPS at 5 mM, 40 h post application: −177%
[3]; 0.6 mM, rhamnose 0%-0.4%, 60 h
  growth with gradually increasing rhamnose (EPSPS TIPS titration): facilitates growth in a gradual manner

## O=C(O)c1cc(C(F)(F)F)cc([N+](=O)[O-])c1F [Compound 16, 2-Fluoro-3-nitro-5-(trifluoromethyl)benzoic acid]
[1]
  % bacterial growth relative to rescue with mutant EPSPS at 20 mM, 40 h post application: −56%
[1]; 20 mM, 40 h, 0.1% rhamnose
  ability of rescued AB2829 bacteria cells (EPSPS TIPS) to grow on M9 minimal media: completely abolish

## O=C(O)CNCP(=O)(O)O [Glyphosate, N-(phosphonomethyl)glycine, reference compound]
[1]
  % bacterial growth relative to rescue with mutant EPSPS at 20 mM, 40 h post application: +127% (+/−37%)
[1]; 20 mM, 40 h, 0.1% rhamnose
  ability of rescued AB2829 bacteria cells (EPSPS TIPS) to grow on M9 minimal media: TIPS mutant is indifferent to glyphosate; also recorded: facilitates growth
[2]
  % bacterial growth relative to rescue with wild type EPSPS, 40 h post application: +6.0% (0.7 mM) −46% (1.5 mM)
[2]; 0.7 mM
  ability of rescued AB2829 bacteria cells (wild type EPSPS) to grow on M9 minimal media: could not facilitates growth
[2]; 1.5 mM
  ability of rescued AB2829 bacteria cells (wild type EPSPS) to grow on M9 minimal media: could not facilitates growth
[3]
  growth with gradually increasing rhamnose (EPSPS TIPS titration): facilitates growth in a gradual manner
[4]
  mode of EPSPS inhibition (Michaelis-Menten and Lineweaver-Burk plots): competitive inhibitor
[5]
  effect of the TIPS mutation on inhibition of EPSPS activity (IC50 WT vs TIPS): 3 orders of magnitude stronger
